Where two headings read alike, the source gives them in different places.
How the values were obtained:
Experiment in all cases: HotSpot kinase profiling
Format in all cases: biochemical
[1] = molecular target: T1, PKG1b (Homo sapiens, UniProt Q13976)
T1 construct: purchased Reaction Biology Corp
T1 sequence (Q13976 1-686 isoform Q13976-2): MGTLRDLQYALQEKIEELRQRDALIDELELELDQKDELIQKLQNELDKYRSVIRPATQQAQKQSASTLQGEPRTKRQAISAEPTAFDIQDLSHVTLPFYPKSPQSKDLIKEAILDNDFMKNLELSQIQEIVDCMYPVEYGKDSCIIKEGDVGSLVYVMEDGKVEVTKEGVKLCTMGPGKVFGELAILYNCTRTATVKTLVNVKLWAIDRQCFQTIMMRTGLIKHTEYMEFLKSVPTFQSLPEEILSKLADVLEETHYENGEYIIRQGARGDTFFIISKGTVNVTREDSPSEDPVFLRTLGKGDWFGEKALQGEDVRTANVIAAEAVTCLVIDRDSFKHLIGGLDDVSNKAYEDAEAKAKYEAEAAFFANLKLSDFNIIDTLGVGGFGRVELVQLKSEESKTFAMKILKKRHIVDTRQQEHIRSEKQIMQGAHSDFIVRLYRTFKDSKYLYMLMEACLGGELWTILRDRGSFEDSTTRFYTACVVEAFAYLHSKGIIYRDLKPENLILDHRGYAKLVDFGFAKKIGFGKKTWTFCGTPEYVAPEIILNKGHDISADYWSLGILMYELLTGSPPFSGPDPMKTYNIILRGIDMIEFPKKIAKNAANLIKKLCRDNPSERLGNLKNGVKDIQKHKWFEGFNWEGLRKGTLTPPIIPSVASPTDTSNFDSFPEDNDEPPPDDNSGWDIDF
Outline: (§1)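 P81 filtration radiometric readout; 2 h incubation at room temperature; 0.1% phosphoric acid wash; DMSO negative control; % inhibition, mean of replicate runs.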

[2] = molecular target: T2, GRK2 (Homo sapiens, UniProt P25098)
T2 construct: purchased Reaction Biology Corp
T2 sequence (P25098 1-689): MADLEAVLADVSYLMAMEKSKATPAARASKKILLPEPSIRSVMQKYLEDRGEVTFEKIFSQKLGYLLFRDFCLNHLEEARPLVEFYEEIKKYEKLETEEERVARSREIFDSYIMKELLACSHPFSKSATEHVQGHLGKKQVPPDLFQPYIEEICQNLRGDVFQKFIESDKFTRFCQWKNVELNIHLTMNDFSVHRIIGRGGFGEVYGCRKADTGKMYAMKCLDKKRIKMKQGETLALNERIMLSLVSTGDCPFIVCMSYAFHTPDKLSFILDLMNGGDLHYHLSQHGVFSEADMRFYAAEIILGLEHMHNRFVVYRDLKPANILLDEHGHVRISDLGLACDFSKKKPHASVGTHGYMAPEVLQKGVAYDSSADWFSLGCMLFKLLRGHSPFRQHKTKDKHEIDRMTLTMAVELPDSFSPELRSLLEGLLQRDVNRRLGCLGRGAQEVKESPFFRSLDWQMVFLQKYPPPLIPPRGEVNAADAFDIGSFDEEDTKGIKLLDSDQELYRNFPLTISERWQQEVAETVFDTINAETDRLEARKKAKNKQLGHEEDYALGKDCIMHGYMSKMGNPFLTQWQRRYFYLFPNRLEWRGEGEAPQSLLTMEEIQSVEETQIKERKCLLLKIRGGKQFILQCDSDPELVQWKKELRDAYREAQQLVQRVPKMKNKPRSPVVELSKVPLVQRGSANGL
Outline: as §1

[3] = molecular target: T3, Haspin (Homo sapiens, UniProt Q8TF76)
T3 construct: purchased Reaction Biology Corp
T3 sequence (Q8TF76 1-798): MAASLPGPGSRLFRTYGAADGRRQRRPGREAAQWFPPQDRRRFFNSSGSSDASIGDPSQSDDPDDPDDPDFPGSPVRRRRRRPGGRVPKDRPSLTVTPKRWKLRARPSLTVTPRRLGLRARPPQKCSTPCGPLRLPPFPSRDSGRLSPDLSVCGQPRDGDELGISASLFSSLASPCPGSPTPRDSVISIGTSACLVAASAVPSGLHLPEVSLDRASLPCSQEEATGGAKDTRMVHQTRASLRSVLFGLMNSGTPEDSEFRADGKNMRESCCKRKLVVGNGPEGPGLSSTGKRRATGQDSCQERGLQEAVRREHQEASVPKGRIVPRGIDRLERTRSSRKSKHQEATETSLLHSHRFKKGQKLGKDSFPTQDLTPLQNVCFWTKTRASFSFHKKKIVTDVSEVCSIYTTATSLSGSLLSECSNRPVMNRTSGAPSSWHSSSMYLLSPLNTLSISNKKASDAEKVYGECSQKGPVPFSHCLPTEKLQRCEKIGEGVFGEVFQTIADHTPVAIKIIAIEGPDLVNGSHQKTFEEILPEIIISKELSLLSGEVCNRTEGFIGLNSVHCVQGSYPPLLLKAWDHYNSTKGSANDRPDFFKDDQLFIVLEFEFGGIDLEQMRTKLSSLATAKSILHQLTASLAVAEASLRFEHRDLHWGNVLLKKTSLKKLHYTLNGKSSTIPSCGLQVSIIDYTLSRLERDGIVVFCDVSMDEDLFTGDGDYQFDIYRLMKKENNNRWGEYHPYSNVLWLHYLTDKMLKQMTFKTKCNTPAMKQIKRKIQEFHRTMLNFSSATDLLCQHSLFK
Outline: as §1

[4] = molecular target: T4, LYN (Homo sapiens, UniProt P07948)
T4 construct: purchased Reaction Biology Corp
T4 sequence (P07948 whole entry): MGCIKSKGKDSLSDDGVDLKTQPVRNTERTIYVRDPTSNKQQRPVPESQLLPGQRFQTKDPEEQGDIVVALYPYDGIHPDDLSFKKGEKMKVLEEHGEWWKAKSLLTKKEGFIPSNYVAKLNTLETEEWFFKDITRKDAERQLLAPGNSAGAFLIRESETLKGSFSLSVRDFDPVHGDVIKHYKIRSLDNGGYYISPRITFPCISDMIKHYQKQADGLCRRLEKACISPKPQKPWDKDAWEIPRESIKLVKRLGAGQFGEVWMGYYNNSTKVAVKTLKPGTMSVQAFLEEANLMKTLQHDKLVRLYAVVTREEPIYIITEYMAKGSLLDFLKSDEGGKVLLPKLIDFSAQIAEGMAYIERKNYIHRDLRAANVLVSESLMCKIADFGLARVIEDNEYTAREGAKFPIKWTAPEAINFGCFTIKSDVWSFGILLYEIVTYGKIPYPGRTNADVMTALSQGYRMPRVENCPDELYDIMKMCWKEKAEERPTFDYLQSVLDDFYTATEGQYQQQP
Outline: as §1

[5] = read-out: % Enzyme Activity (relative to DMSO controls) Run 1
[6] = read-out: % Enzyme Activity (relative to DMSO controls) Run 2

C=CC(=O)Nc1cccc(Nc2nc(Nc3ccc(OCCOC)c(F)c3)ncc2F)c1 [Compound 2]
inhibition at 3 µM [1]: 13.8%
remaining activity at 3 µM [1, 5]: 85.4%
remaining activity at 3 µM [1, 6]: 87.1%
inhibition at 3 µM [2]: -4.03%
remaining activity at 3 µM [2, 5]: 104%
remaining activity at 3 µM [2, 6]: 104%
inhibition at 3 µM [3]: 9.77%
remaining activity at 3 µM [3, 5]: 90.6%
remaining activity at 3 µM [3, 6]: 89.9%
inhibition at 3 µM [4]: 27.5%
remaining activity at 3 µM [4, 5]: 71.7%
remaining activity at 3 µM [4, 6]: 73.2%
